Data from patent publication US9278947B2, “Serotonin reuptake inhibitors as drugs having peripheral-system-restricted activity” (priority 2006, dated 2016).
Read-outs that look alike come from different tables or passages of the source. Marks after values point to notes of the source that are not given here.

Columns and labels:
[1] = system: [^3H]dopamine uptake into rat brain synaptosomes; test: [^3H]dopamine uptake by rat brain synaptosomes; format: biochemical; conditions: for inhibition of [^3H]dopamine uptake: at 45 nM
Description: (§1) [^3H]dopamine and [^3H]noradrenaline uptake assays were carried out in synaptosomes from rat brain cortex. After a 10 minutes pre-incubation period at 37° C., [^3H]dopamine or [^3H]noradrenaline were added to the tubes containing synaptosomes and tested drugs. The reactions were stopped after four minutes by rapid cooling on ice. Specific uptake was defined as the difference between total uptake at 37° C. (triplicate samples) and the uptake measured at 0° C. (duplicate samples). Three separate experiments were performed.

[2] = system: [^3H]noradrenaline uptake into rat brain synaptosomes; test: [^3H]noradrenaline uptake by rat brain synaptosomes; format: biochemical; conditions: for inhibition of [^3H]noradrenaline uptake: at 8.5 nM
Description: as §1

mice [3] = test: Tail bleeding time in chronically treated mice; format: in vivo; conditions: for Mean (n = 4) of mean bleeding time: mean over experiments (different doses)
Description: The anti-thrombotic effects of a drug can be evaluated in mice through a bleeding time experiment. Mice were treated by the tested drugs for two weeks, then anesthetized and placed on a warming pad before a segment of their tail was amputated. The tail was immersed in 0.9% isotonic saline at 37° C., and the time required for the stream of blood to stop was defined as the bleeding time. Different cuts and drug doses were tested. Control mice were administered either DDW (p.o) or saline (i.p). In some experiments (Nos. 5 and 6), half of the mice were administered DDW and half saline.

mice [4] = test: Collagen-epinephrine induced acute pulmonary thromboembolism in mice; format: in vivo; conditions: for death or paralysis after collagen-epinephrine injection versus control group: chronic treatment: aspirin 70 mg/kg, citalopram 10 mg/kg, NMC 10 mg/kg; for Number of mice who died: died or paralyzed after collagen-epinephrine into tail vein; for % death: died or paralyzed; for Mean % death ± S.E.M: mean of 3 experiments
Description: An experimental model of acute pulmonary thromboembolism was induced in mice by injecting a mixture of collagen (0.5 mg/kg) and epinephrine (0.5 mg/kg). […] The injection was followed by a massive activation of circulating platelets and the widespread formation of platelet thrombi in the microcirculation of the lungs leading to disseminated pulmonary microembolism and paralysis of the animal.

[5] = reported in reference [1]; cited from earlier work
[6] = 3 mm tail amputation, Experiment No. 3, CJ57/black, 2 mg/kg p.o., two weeks
[7] = 3 mm tail amputation, Experiment No. 5, ICR, 10 mg/kg i.p., two weeks
[8] = Experiment No. 1, 10 mg/kg for two weeks
[9] = Experiment No. 2, 10 mg/kg for two weeks
[10] = Experiment No. 3, 10 mg/kg for two weeks
[11] = 10 mg/kg for two weeks (control 72 ± 2)
[12] = Experiment No. 1, 70 mg/kg for two weeks
[13] = Experiment No. 2, 70 mg/kg for two weeks
[14] = Experiment No. 3, 70 mg/kg for two weeks

Row | Compound | inhibition of [^3H]dopamine uptake [1] | inhibition of [^3H]noradrenaline uptake [2] | Mean bleeding time (mice [3]; [6]) [s] | Mean bleeding time (mice [3]; [7]) [s] | Mean (n = 4) of mean bleeding time (mice [3]; 3 mm tail amputation) [s] | death or paralysis after collagen-epinephrine injection versus control group (mice [4]) | Number of mice who died (mice [4]; [8]) | Number of mice who died (mice [4]; [9]) | Number of mice who died (mice [4]; [10]) | % death (mice [4]; [8]) [%] | % death (mice [4]; [9]) [%] | % death (mice [4]; [10]) [%] | Mean % death ± S.E.M (mice [4]; [11]) | reduction of MI risk [5] [%] | also measured
1 | CN(C)CCCC1(c2ccc(F)cc2)OCc2cc(C#N)ccc21 (stereo not shown) [Citalopram, 1-(3-Dimethylamino-propyl)-1-(4-fluoro-phenyl)-1,3-dihydro-isobenzofuran-5-carbonitrile] | did not inhibit | did not have any effect | 179 | 66 | 171 | did not cause a significant improvement | 7/9 | 8/13 | 7/10 | 78 | 61 | 70 | 70 ± 5% | – | Mice behavior following injections, day 1 (ICR mice; 30 mg/day i.p., ICR mice, observed 1 hour): normal; Mice behavior following injections, day 3 (ICR mice; 100 mg/day i.p., ICR mice, observed 1 hour): looks weak
2 | OC1(c2ccc(Cl)cc2)c2ccccc2C2=NCCN21 (stereo not shown) [mazindol] | – | – | – | – | – | – | – | – | – | – | – | – | – | – | IC50 ([1]; rat brain synaptosomes, read-out: concentration inhibiting [^3H]dopamine uptake by 50%): 45 nM; IC50 ([2]; rat brain synaptosomes, read-out: concentration inhibiting [^3H]noradrenaline uptake by 50%): 8.5 nM
3 | CC(=O)Oc1ccccc1C(=O)O [Aspirin] | – | – | – | – | 288 | significantly less prone to die or to be paralyzed | – | – | – | – | – | – | – | 20 | Mean bleeding time (mice [3]; 3 mm tail amputation, Experiment No. 2, CJ57/black, 40 mg/kg p.o., two weeks): 389 s; Mean bleeding time (mice [3]; 3 mm tail amputation, Experiment No. 3, CJ57/black, 40 mg/kg p.o., two weeks): 230 s; Mean bleeding time (mice [3]; 3 mm tail amputation, Experiment No. 4, CJ57/black, 70 mg/kg p.o., two weeks): 394 s; Mean bleeding time (mice [3]; 3 mm tail amputation, Experiment No. 5, ICR, 70 mg/kg p.o., two weeks): 145 s; Mean bleeding time (mice [3]; 4 mm tail amputation, Experiment No. 6, ICR, 40 mg/kg p.o.): 221 s; Mean bleeding time (mice [3]; amputation where tail diameter is 2 mm, Experiment No. 1, CJ57/black, 40 mg/kg p.o.): 233 s; Number of mice who died (mice [4]; [12]): 5/10; Number of mice who died (mice [4]; [13]): 5/12; Number of mice who died (mice [4]; [14]): 3/11; % death (mice [4]; [12]): 50%; % death (mice [4]; [13]): 42%; % death (mice [4]; [14]): 27%; Mean % death ± S.E.M (mice [4]; 70 mg/kg for two weeks (control 72 ± 2)): 40^a ± 7^ %
4 | COC(=O)[C@H](c1ccccc1Cl)N1CCc2sccc2C1 [clopidogrel] | – | – | – | – | – | – | – | – | – | – | – | – | – | 10 | –
5 | C[N+](C)(C)CCCC1(c2ccc(F)cc2)OCc2cc(C#N)ccc21 (stereo not shown) [NMC, N-methyl-citalopram] | less than 10% | less than 20% | 150 | 124 | 191 | significant decrease in death or paralysis | 6/8 | 4/13 | 6/14 | 75 | 31 | 43 | 50^b ± 10% | – | dose at which not lethal to mice (ICR mice; i.p., mice): less than 50 mg/kg; Mice behavior following injections, day 1 (ICR mice; mouse, in vivo, ip): normal; Mice behavior following injections, day 2 (ICR mice; mouse, in vivo, ip): normal; Mice behavior following injections, day 3 (ICR mice; mouse, in vivo, ip): normal; doses that can be toxic (ICR mice; mouse, in vivo, ip): above 50 mg/kg
